According to patent publication US9730450B2, “Use of isosorbide monoesters as antimicrobial active substances” (CLARIANT INTERNATIONAL LTD., priority 2011, dated 2017):
Converted amounts (≈) assume the structure as drawn. Like-named read-outs stand apart in the source and are kept apart here. One block for each compound: values may come before it.

Columns and labels:
Candida albicans = assay: MIC agar dilution test, yeasts; format: cell-based; conditions: Candida albicans (Y); Sabouraud 4% dextrose agar buffered to pH 5.6; corrected for dilution effect of butyl polyglycol; read-out: Minimum inhibitory concentration (MIC)
Experimental: (§1) Below, the antimicrobial efficacy of isosorbide caprylate 1 in butyl polyglycol against bacteria, fungi and yeasts is examined. For the tests with bacteria, isosorbide caprylate 1 was diluted with butyl polyglycol and then, at 50° C., added to liquid CASO agar (casein-peptone agar) buffered to pH 7 (+1-0.2) in various concentrations (hereinbelow referred to as compositions B1, B2, etc.). For the tests with fungi and yeasts, isosorbide caprylate 1 was diluted with butyl polyglycol and then added to liquid Sabouraud 4% dextrose agar buffered to pH 5.6 (+1-0.2) in various concentrations (hereinbelow referred to as compositions PH1, PH2, etc.). The compositions B1, B2, etc. and PH1, PH2 etc. were each poured into Petri dishes and each inoculated with identical amounts of bacteria, fungi and yeasts. The minimum inhibitory concentration (MIC) is the concentration at which inhibition of the growth of the bacteria, fungi and yeasts in the compositions B1, B2, etc. and PH1, PH2, etc. occurs.
(§2) Analogously to the determination of the antimicrobial activity of isosorbide caprylate 1, the antimicrobial activity firstly of a mixture comprising 89.6% by weight of isosorbide dicaprylate and 9.4% by weight of isosorbide monocaprylate (remainder: 1% by weight) (hereinbelow referred to as “isosorbide dicaprylate”) and, secondly, pure isosorbide was determined in further test series.

Escherichia coli = assay: MIC agar dilution test, bacteria; format: cell-based; conditions: Escherichia coli (B); CASO agar buffered to pH 7; corrected for dilution effect of butyl polyglycol; read-out: Minimum inhibitory concentration (MIC)
Experimental: as §1, §2

Klebsiella pneumoniae = assay: MIC agar dilution test, bacteria; format: cell-based; conditions: Klebsiella pneumoniae (B); CASO agar buffered to pH 7; corrected for dilution effect of butyl polyglycol; read-out: Minimum inhibitory concentration (MIC)
Experimental: as §1, §2

Proteus vulgaris = assay: MIC agar dilution test, bacteria; format: cell-based; conditions: Proteus vulgaris (B); CASO agar buffered to pH 7; corrected for dilution effect of butyl polyglycol; read-out: Minimum inhibitory concentration (MIC)
Experimental: as §1, §2

Pseudomonas oleovorans = assay: MIC agar dilution test, bacteria; format: cell-based; conditions: Ectopseudomonas oleovorans; Pseudomonas oleovorans (B); CASO agar buffered to pH 7; corrected for dilution effect of butyl polyglycol; read-out: Minimum inhibitory concentration (MIC)
Experimental: as §1, §2

Pseudomonas aeruginosa = assay: MIC agar dilution test, bacteria; format: cell-based; conditions: Pseudomonas aeruginosa (B); CASO agar buffered to pH 7; corrected for dilution effect of butyl polyglycol; read-out: Minimum inhibitory concentration (MIC)
Experimental: as §1, §2

Enterobacter aerogenes = assay: MIC agar dilution test, bacteria; format: cell-based; conditions: Klebsiella aerogenes; Enterobacter aerogenes (B); CASO agar buffered to pH 7; corrected for dilution effect of butyl polyglycol; read-out: Minimum inhibitory concentration (MIC)
Experimental: as §1, §2

Citrobacter freundii = assay: MIC agar dilution test, bacteria; format: cell-based; conditions: Citrobacter freundii (B); CASO agar buffered to pH 7; corrected for dilution effect of butyl polyglycol; read-out: Minimum inhibitory concentration (MIC)
Experimental: as §1, §2

Staphylococcus aureus = assay: MIC agar dilution test, bacteria; format: cell-based; conditions: Staphylococcus aureus (B); CASO agar buffered to pH 7; corrected for dilution effect of butyl polyglycol; read-out: Minimum inhibitory concentration (MIC)
Experimental: as §1, §2

[1] = system: bacteria, fungi and yeasts; assay: Antimicrobial efficacy, overall statement; format: cell-based
Experimental: as §1, §2

Aspergillus terreus = assay: MIC agar dilution test, fungi; format: cell-based; conditions: Aspergillus terreus (F); Sabouraud 4% dextrose agar buffered to pH 5.6; corrected for dilution effect of butyl polyglycol; read-out: Minimum inhibitory concentration (MIC)
Experimental: as §1, §2

Penicillium minioluteum = assay: MIC agar dilution test, fungi; format: cell-based; conditions: Talaromyces minioluteus; Penicillium minioluteum (F); Sabouraud 4% dextrose agar buffered to pH 5.6; corrected for dilution effect of butyl polyglycol; read-out: Minimum inhibitory concentration (MIC)
Experimental: as §1, §2

Penicillium funicolosium = assay: MIC agar dilution test, fungi; format: cell-based; conditions: Penicillium funicolosium (F); Sabouraud 4% dextrose agar buffered to pH 5.6; corrected for dilution effect of butyl polyglycol; read-out: Minimum inhibitory concentration (MIC)
Experimental: as §1, §2

Fusarium solani = assay: MIC agar dilution test, fungi; format: cell-based; conditions: Fusarium solani (F); Sabouraud 4% dextrose agar buffered to pH 5.6; corrected for dilution effect of butyl polyglycol; read-out: Minimum inhibitory concentration (MIC)
Experimental: as §1, §2

Aspergillus brasiliensis = assay: MIC agar dilution test, fungi; format: cell-based; conditions: Aspergillus brasiliensis (F); Sabouraud 4% dextrose agar buffered to pH 5.6; corrected for dilution effect of butyl polyglycol; read-out: Minimum inhibitory concentration (MIC)
Experimental: as §1, §2

[2] = system: bacteria, fungi and yeasts; conditions: general statement, no test described, cited from earlier work

- MIC (Candida albicans): 10000 µg/mL (≈ 68.4 mM)
- MIC (Escherichia coli): 10000 µg/mL (≈ 68.4 mM)
- MIC (Klebsiella pneumoniae): 10000 µg/mL (≈ 68.4 mM)
- MIC (Proteus vulgaris): 10000 µg/mL (≈ 68.4 mM)
- MIC (Pseudomonas oleovorans): 10000 µg/mL (≈ 68.4 mM)
- MIC (Pseudomonas aeruginosa): 10000 µg/mL (≈ 68.4 mM)
- MIC (Enterobacter aerogenes): 10000 µg/mL (≈ 68.4 mM)
- MIC (Citrobacter freundii): 10000 µg/mL (≈ 68.4 mM)
- MIC (Staphylococcus aureus): 10000 µg/mL (≈ 68.4 mM)
- MIC (Aspergillus terreus): 10000 µg/mL (≈ 68.4 mM)
- MIC (Penicillium minioluteum): 10000 µg/mL (≈ 68.4 mM)
- MIC (Penicillium funicolosium): 10000 µg/mL (≈ 68.4 mM)
- MIC (Fusarium solani): 10000 µg/mL (≈ 68.4 mM)
- MIC (Aspergillus brasiliensis): 10000 µg/mL (≈ 68.4 mM)
Compound: O[C@@H]1CO[C@H]2[C@@H]1OC[C@@H]2O [isosorbide]
- antimicrobial activity (in words) ([1]; summary of MIC results of Tables 1 and 2): neither isosorbide nor isosorbide dicaprylate is antimicrobially active

Compound: isosorbide monocaprylate
- antimicrobial activity (in words) ([1]; concluded from activity of isosorbide caprylate 1 and inactivity of its other constituents, in particular as fungicide against fungi and yeasts): significant antimicrobial activity

Compound: CCCCCCCC(=O)O [caprylic acid]
- antimicrobial activity (in words) ([2]; at a pH of 6 or above): no antimicrobial activity
- antimicrobial activity (in words) [2]: antimicrobially effective
